Source: PubChem BioAssay (NCI)
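1) Cells in 96-well plates. 2) Compound, 48 h, 5 concentrations. 3) Linear interpolation between surrounding doses. 4) Unreached endpoint = highest concentration. At the GI50, growth is halved. Definition used: TGI = concentration required for complete inhibition of growth.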

Assays:
Test in all cases: NCI tumour cell line growth inhibition, 48 h
[1] = tested on: IGROV1 ovarian
[2] = tested on: CCRF-CEM leukemia
[3] = tested on: HCT-116 colon
[4] = tested on: SK-MEL-2 melanoma
[5] = tested on: K-562 leukemia
[6] = tested on: U251 CNS
[7] = tested on: UACC-62 melanoma
[8] = tested on: NCI/ADR-RES ovarian
[9] = tested on: SNB-75 CNS
[10] = tested on: SF-268 CNS

SMILES	GI50 [1] [µM]	TGI [1] [µM]	GI50 [2] [µM]	TGI [2] [µM]	GI50 [3] [µM]	TGI [3] [µM]	GI50 [4] [µM]	TGI [4] [µM]	GI50 [5] [µM]	TGI [5] [µM]	GI50 [6] [µM]	TGI [6] [µM]	GI50 [7] [µM]	TGI [7] [µM]	GI50 [8] [µM]	TGI [8] [µM]	GI50 [9] [µM]	TGI [9] [µM]	GI50 [10] [µM]	TGI [10] [µM]
C=CC(=O)Nc1cccc(C)c1Nc1cc(-c2cccnc2Cc2c(C)c(OC)cc(OC)c2C)ncn1	14.2	53.9	8.26	> 100	16.6	44.6	12.6	32.4	7.55	> 100	6.26	30	10.3	25.9	9.9	38	13.2	91.2	9.59	60.3
Cc1cc(N/N=C/c2nc(-c3ccc(Br)cc3)oc2C)c2cc(Cl)ccc2n1	> 100	> 100	> 100	> 100	> 100	> 100	> 100	> 100	> 100	> 100	> 100	> 100	> 100	> 100	> 100	> 100	> 100	> 100	> 100	> 100
COc1ccc(C(OCC2OC(n3ccc(NC(=O)c4ccccc4)nc3=O)C(O)C2O)(c2ccccc2)c2ccccc2)cc1 (stereo not drawn)	–	3.86	–	4.39	–	3.23	–	6.68	–	5.58	–	3.48	–	21	–	4.89	–	22	–	19.8
C[C@]12CC[C@H]3[C@@H](CCC4=CC(=O)CC[C@@H]43)[C@@H]1CC[C@@H]2OC(=O)CCc1ccccc1	20.5	42	17.2	43.5	19.3	43.9	41	> 100	18.8	> 69	15.1	28.4	9.64	35.7	19.1	40.9	29	> 100	15.1	29.6
N#Cc1c(N/N=C/c2c(Cl)cccc2Cl)nc(N)nc1N1CCOCC1	3.95	34.6	6.27	> 100	4.72	31.3	8.3	81.8	2.34	11.3	15.6	> 100	3.7	31.4	9.98	64.6	35.5	> 100	16.5	> 100
O=C1C(=O)c2c(nc3ccc(Cl)cn23)-c2ccccc21	0.646	–	0.411	3.68	0.311	3.73	0.432	1.61	0.163	> 100	0.274	0.721	0.285	0.904	0.344	2.04	1.25	2.61	0.307	1.18
COc1cc2c(cc1OCCCCOc1cc3c(cc1OC)C(=O)N1CCC[C@H]1CN3)N=C[C@@H]1CCCN1C2=O	2.42	> 27	0.243	–	2.37	> 100	0.826	> 100	0.174	> 37.9	0.392	> 100	1.3	3.03	45	> 100	3.58	16.9	0.344	4.95
C=C1CC[C@@H]2[C@](C)(COC(C)=O)[C@@H](O)CC[C@@]2(C)[C@@H]1COc1ccc2ccc(=O)oc2c1	> 100	> 100	> 100	> 100	> 100	> 100	> 100	> 100	62.6	> 100	61.2	> 100	> 100	> 100	> 100	> 100	17.6	> 100	> 100	> 100
COc1cc2nc(N3CCCC3)nc(NCC3CCCCC3)c2cc1OC	1.48	3.06	1.09	3.5	0.805	2.21	1.86	3.51	0.334	2.1	1.21	2.64	1.74	3.21	1.51	3.47	1.47	2.81	1.75	3.45
O=C(O)C/C=C/CC(=O)O	–	> 100	–	> 100	–	> 100	–	> 100	–	> 100	–	> 100	–	> 100	–	> 100	–	> 100	–	> 100
COc1cccc(NC(=O)c2sc3nc4c(cc3c2N)CN(Cc2ccccc2)CC4)c1	18.5	> 100	29.5	> 100	1.74	> 100	10.3	44.5	0.53	> 100	2.74	19.2	1.92	29.8	2.4	33.3	1.73	4.71	3.66	20.7
